Measured values reported in ChEMBL document CHEMBL6087454, “Identification of Novel Organo-Se BTSA-Based Derivatives as Potent, Reversible, and Selective PPARγ Covalent Modulators for Antidiabetic Drug Discovery” (J Med Chem, 2025).
Activity calls are given as the source filed them. The rule behind the calls is not given here.

Legend:
Mus musculus [1] = assay: Antidiabetic activity in male db/db mouse model assessed as downregulation of CD36 gene expression in liver at 2.5 to 10 mg/kg/day, ip administered for 4 weeks by RT-qPCR analysis; type: functional, organism-based; details: dose 2.5-10 mg/kg/day
[2] = Toxicity in male db/db mouse model assessed as effect on spleen morphology at 2.5 to 10 mg/kg/day, ip administered for 4 weeks; type: organism-based; details: in vivo, 672 h, dose 2.5-10 mg/kg/day
[3] = biological target: T1, Peroxisome proliferator-activated receptor gamma (Homo sapiens) (UniProt P37231); assay: Covalent binding affinity to recombinant PPAR-gamma ligand binding domain (unknown origin) incubated for 30 mins by high-performance liquid chromatography Fourier transform mass spectrometric analysis; details: filed as partial agonist
T1 sequence (whole entry): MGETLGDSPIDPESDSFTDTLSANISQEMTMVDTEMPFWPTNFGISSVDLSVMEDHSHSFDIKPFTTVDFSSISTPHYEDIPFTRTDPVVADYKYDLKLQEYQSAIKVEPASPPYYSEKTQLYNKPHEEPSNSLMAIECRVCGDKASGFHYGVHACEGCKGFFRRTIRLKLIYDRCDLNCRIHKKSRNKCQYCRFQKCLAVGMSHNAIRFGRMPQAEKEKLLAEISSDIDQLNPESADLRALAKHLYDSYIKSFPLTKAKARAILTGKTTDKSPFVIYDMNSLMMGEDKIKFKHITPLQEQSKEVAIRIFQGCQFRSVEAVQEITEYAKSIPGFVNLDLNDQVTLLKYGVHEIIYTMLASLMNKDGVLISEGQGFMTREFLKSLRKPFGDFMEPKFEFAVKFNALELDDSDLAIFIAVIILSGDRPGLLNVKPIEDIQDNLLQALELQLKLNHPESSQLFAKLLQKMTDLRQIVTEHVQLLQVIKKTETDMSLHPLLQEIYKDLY

Mus musculus [4] = assay: Antidiabetic activity in male db/db mouse model assessed as reduction in random blood glucose level administered intraperitoneally for 4 weeks; type: functional, organism-based; details: dose 2.5-10 mg/kg/day, route ip
[5] = Toxicity in male db/db mouse model assessed as effect on liver weight at 2.5 to 5 mg/kg, ip administered for 4 weeks; type: organism-based; details: in vivo, 672 h, dose 2.5-5 mg/kg
Mus musculus [6] = assay: Antidiabetic activity in male db/db mouse model assessed as decrease in PDK4 protein abundance in white adipose tissue at 2.5 to 10 mg/kg/day, ip administered for 4 weeks by Western blotting analysis; type: functional, organism-based; details: dose 2.5-10 mg/kg/day
Mus musculus [7] = assay: Antidiabetic activity in male db/db mouse model assessed as decrease in serum insulin level at 2.5 to 10 mg/kg/day, ip preadministered for 4 weeks followed by glucose administration after 4 to 6 hrs of fasting and measured after 120 mins by intraperitoneal insulin tolerance test; type: functional, organism-based; details: dose 2.5-10 mg/kg/day
3T3-L1 = assay: Insulin sensitizing activity in mouse 3T3-L1 cells assessed as upregulation of Glut4 gene expression at 1 uM measured after 48 hrs by RT-qPCR analysis; type: functional, cell-based

In the case of Cc1ccc(S(=O)(=O)Oc2ccc(S3(=O)=N[Se]c4cc(OS(=O)(=O)c5ccc(C)cc5)ccc43)cc2)cc1 (stereo not drawn), the Activity (Mus musculus [1]) is reported as “Active”, the Activity [2] is reported as “Non-toxic” and the Activity [3] is reported as “Active; Mass Change Of 633.50 Da For Ppargamma-Lbd Observed”. For the same compound, the Activity (Mus musculus [4]) was “Dose-dependent-effect”, the Activity [5] was “Non-toxic” and the Activity (Mus musculus [6]) was “Active”. The Activity (Mus musculus [7]) was “Active” and the Activity (3T3-L1) was “Active”.
